The values below are quoted from earlier work in patent publication US20040171518A1, “Compounds for protein stabilization and methods for their use” (Medtronic MiniMed, Inc., priority 2003, published 2004).

Where two headings read alike, the source gives them in different places.

On to `O=C(O)CCC(=O)NCCCCC1NC(=O)C(CCCCNC(=O)CCC(=O)O)NC1=O` (centres unmarked) [2,5-diketo-3,6-di(4-succinylaminobutyl)piperazine], for which the solubility result runs as follows: (acidic aqueous solutions) “quite insoluble”; (weakly alkaline aqueous solution) “readily soluble”.
